Reference: patent US12478694B2, “H2O2-responsive crosslinking near-infrared molecular probe for tumor microenvironment and use therefor” (SOOCHOW UNIVERSITY, priority 2019, dated 2025)

Experiments:
[1] = Ultraviolet absorption spectrum and fluorescence spectrum of the probe; format: physicochemical; conditions: probe diluted with methanol to 1 μM
Experimental: (§1) After diluting the H2O2 responsive NIR molecular probe prepared in Example 1 with methanol to a concentration of 1 μM, an ultraviolet-visible absorption spectrometer and a steady-state/transient fluorescence spectrometer were used to measure the ultraviolet absorption spectrum and fluorescence of the probe. Spectrum: The cytotoxicity of the probe to 4T1 was investigated by MTT (thiazole blue) colorimetry.

[2] = test system: 4T1 cells; assay: Co-localization of intracellular probe and intracellular mitochondria; format: cell-based, mouse; conditions: 5 μM probe, incubated 12 hours
Experimental: Based on the method described in Example 2, 4T1 cells were seeded in a confocal small dish with 1.5×10^4 cells per well, placed in an incubator for 24 hours, and then the culture medium was discarded. The H2O2 responsive NIR molecular probe prepared in Example 1 was diluted with a culture medium to a concentration of 5 μM, and then added to a 4T1 cell culture dish, and placed in a cell incubator to incubate for 12 hours. After the probe and 4T1 cell incubation time was over, the cells were incubated with mitochondrial dye and Hoechst 33342 respectively, and the co-localization of the probe with mitochondria in 4T1 cells at the same time was observed using a confocal microscope.

[3] = test system: 4T1 cells; assay: Immunofluorescence of the probes in hydrogen peroxide treated 4T1 cells after re-culturing for 12 hours; format: cell-based, mouse; conditions: 100 μM H2O2 15 min, 5 μM probe 8 h, re-culture 12 hours
Experimental: Based on the method described in Example 2, 4T1 cells were seeded in a confocal small dish, 1.5×10^4 cells per well, and placed in an incubator for 24 hours. After diluting hydrogen peroxide to 100 μM with cell culture medium, it was added to a culture dish of 4T1 cells and incubated for 15 minutes, and then the culture medium was discarded. The H2O2 responsive NIR molecular probe prepared in Example 1 was diluted with a culture medium to a concentration of 5 μM, and then added to a 4T1 cell culture dish, and placed in a cell incubator for 8 hours. After the incubation time of the probe and 4T1 cells is over, add new cell culture medium and continue culturing in the incubator for 12 hours. Subsequently, the cells were fixed with 4% paraformaldehyde at room temperature for 15 minutes, and then washed with PBS; secondly, 0.5% Trition-100 and 4T1 cells were incubated at room temperature for 5 minutes; the antibody anticysteine sulfenic acid was incubated at room temperature. After 1 hour, the antibody was washed with PBS, and then incubated at 37° C. for 30 minutes with goat anti-rabbit-Cy3. Finally, the nucleus was stained with Hoechst 33342 staining solution. […] The fluorescent probe (TC) without 3,5-dioxocyclohexane carboxylic acid was used as a control, and a unified experimental method was adopted.

[4] = test system: 4T1 mouse breast cancer tumor in BALB/c/nu female nude mice; assay: NIR fluorescence imaging of the probe at the tumor site in mice; format: in vivo; conditions: intratumoral injection, 100 μM, 50 μL
Experimental: BALB/c/nu female nude mice inoculated with 4T1 mouse breast cancer cells were randomly divided into two groups with 5 mice in each group. After the tumor on the right forelimb of the mouse grows up, the probes DATC and TC are injected into the tumors of the two groups of nude mice by intratumoral injection, at a concentration of 100 μM (50 μL/each). Then put the probe-injected mice in the small animal IVIS Lumina XRMS live imaging system to observe the changes in the fluorescence intensity of the probe in the nude mouse tumor over time, and calculate the experimental group probe and the control group through the IVIS live imaging analysis software The fluorescence intensity of the probe at different time points at the tumor site in nude mice.

[5] = test system: 4T1 cells; assay: Retention of the probe in 4T1 cells treated with hydrogen peroxide, confocal fluorescence; format: cell-based, mouse
Experimental: The 4T1 cells were first treated with 100 μM hydrogen peroxide for 15 min, and then the H2O2 responsive NIR molecular probe DATC prepared in Example 1 was diluted into the cell culture medium, and then added to the 4T1 cell culture dish and incubated (The probe concentration is 5 μM). The sulfhydryl group on the protein in 4T1 cells treated with hydrogen oxide will be oxidized to sulfenic acid. When the probe entered into the tumor cell, the group 3,5-dioxocyclohexane carboxylic acid will interact with sulfenic acid cross-linking forms a CS covalent bond, so that the probe molecule is firmly connected to the macromolecular protein in the tumor cell, thereby prolonging the residence time of the molecular probe in the tumor cell, and improving the imaging effect of the probe molecule.
Based on the method described in Example 2, 4T1 cells were seeded in a confocal small dish, 1.5×10^4 cells per well, and placed in an incubator for 24 hours. After diluting hydrogen peroxide to 100 μM with cell culture medium, it was added to a culture dish of 4T1 cells and incubated for 15 minutes, and then the culture medium was discarded. The H2O2 responsive NIR molecular probe prepared in Example 1 was diluted with a culture medium to a concentration of 5 μM, and then added to the 4T1 cell culture dish, and placed in a cell incubator for 8 hours. After incubation of the probe and 4T1 cell, added new cell culture medium and continue culturing in the incubator for 4h, 8h, 12h and 24h. Then stained the nucleus with Hoechst33342 dye solution, and observed the fluorescence in 4T1 cells at different times after hydrogen peroxide treatment with a laser confocal microscope. The fluorescent probe (TC) without 3,5-dioxocyclohexane carboxylic acid was used as a control example, and a unified experimental method was adopted.

[6] = test system: 4T1; assay: Cytotoxicity of the probe by MTT (thiazole blue) colorimetry; format: cell-based, mouse; conditions: 4T1 cells
Experimental: as §1

max absorption peak ([1]; UV absorption spectrum): 646 nm
maximum emission ([1]; fluorescence spectrum): 670 nm
Structure (SMILES): C[N+]1=C(/C=C/C=C/C=C2/N(CCCCCC(=O)NCCCn3cc(CNC(=O)[C@H](CCCCNC(=O)C4CC(=O)CC(=O)C4)NC(=O)CCC[P+](c4ccccc4)(c4ccccc4)c4ccccc4)nn3)c3ccc(S(=O)(=O)O)cc3C2(C)C)C(C)(C)c2cc(S(=O)(=O)O)ccc21 [DATC]
co-localization of the probe with mitochondria [2]: basically coincide
content / fluorescent signal of probe in cells [3]: relatively high
duration of the fluorescent signal at the tumor site [4]: 36 h
fluorescence signal of the probe at the tumor site at 2h ([4]; 2h): only slightly decreased
fluorescence signal of the probe at the tumor site at 12h ([4]; 12h): obvious fluorescence signal
red fluorescence intensity in 4T1 cells 8 hours after washing off the probe, versus control probe ([5]; 100 μM H2O2 15 min, 5 μM probe 8 h, re-culture 8 h): significantly stronger
fluorescence signal in 4T1 cells 24h later ([5]; 100 μM H2O2 15 min, 5 μM probe 8 h, re-culture 24 h): strong fluorescence signal
time the probe can stay in the cell ([5]; fluorescence quantitative data, H2O2-treated 4T1 cells, 5 μM probe): ≥ 24 h
killing effect on the cells as the concentration increases [6]: no killing effect on the cells
